Results on nine compounds are retold here after PubChem BioAssay (NCI).

Among the test systems are ACHN renal; BT-549 breast; HOP-92 NSCLC; KM12 colon; MALME-3M melanoma; MCF7 breast; MDA-MB-435; MOLT-4 leukemia; NCI-H226 lung; NCI-H23 lung; OVCAR-5 ovarian; RPMI-8226 leukemia; RXF 393 renal; SK-OV-3 ovarian; SNB-19 CNS; SNB-75 CNS; SR leukemia; SW-620 colon; U251 CNS; UACC-62 melanoma.
What all share (assay): growth of human tumour cells (NCI), 48 h

Molecules are shown by their SMILES.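 Values below derive from 48-hour exposures of cells grown in 96-well plates, with endpoints linearly interpolated between the two concentrations bracketing the appropriate inhibition level. TGI marks complete inhibition of growth.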 Some results are limits rather than exact numbers.

Consider `C=CCN1CCC(OC(=O)C(O)(C#CC)C2CCCC2)CC1` (stereo not given), for which the TGI with ACHN renal, with BT-549 breast, with HOP-92 NSCLC, in the test on KM12 colon, in the test with MALME-3M melanoma and in the test on MCF7 breast was greater than 100 µM each time. Further, the TGI with MDA-MB-435, in the test with MOLT-4 leukemia, in the test with NCI-H226 lung, in the test with NCI-H23 lung, in the test with OVCAR-5 ovarian and with RPMI-8226 leukemia was greater than 100 µM each time. Further, the TGI with RXF 393 renal, with SK-OV-3 ovarian, in the test on SNB-19 CNS, in the test on SNB-75 CNS, in the test on SR leukemia and in the test on SW-620 colon was greater than 100 µM in each case. The TGI in the test on U251 CNS and with UACC-62 melanoma was greater than 100 µM throughout.

Turning to `O=c1cc(NCCCCCO)[nH]c(=O)[nH]1`, the TGI with ACHN renal, with BT-549 breast, in the test on HOP-92 NSCLC, in the test on KM12 colon, with MALME-3M melanoma and in the test with MCF7 breast was greater than 100 µM in each case. Further, the TGI in the test on MDA-MB-435, in the test with MOLT-4 leukemia, in the test with NCI-H226 lung, in the test on NCI-H23 lung, in the test with OVCAR-5 ovarian and in the test on RPMI-8226 leukemia was greater than 100 µM throughout. In addition, the TGI in the test with RXF 393 renal, in the test on SK-OV-3 ovarian, in the test with SNB-19 CNS, in the test on SNB-75 CNS, in the test on SR leukemia and in the test with SW-620 colon was greater than 100 µM throughout. For the same compound, the TGI in the test on U251 CNS and in the test on UACC-62 melanoma was greater than 100 µM each time.

As for `CCC(C#N)(c1ccccc1)N(CCc1ccccc1)C(=O)c1ccccc1` (stereo not given), the TGI in the test on ACHN renal is greater than 100 µM; in the test with BT-549 breast, greater than 100 µM; in the test on HOP-92 NSCLC, 45.2 µM; in the test on KM12 colon it was greater than 100 µM; in the test with MALME-3M melanoma, greater than 100 µM; in the test on MCF7 breast it was greater than 100 µM. The TGI in the test with MDA-MB-435 is greater than 100 µM; in the test with MOLT-4 leukemia, greater than 100 µM; in the test on NCI-H226 lung, 39.7 µM; in the test with NCI-H23 lung, greater than 100 µM; in the test on OVCAR-5 ovarian, greater than 100 µM; in the test on RPMI-8226 leukemia, greater than 100 µM. The TGI was 55.3 µM in the test with RXF 393 renal; 82.7 µM in the test with SK-OV-3 ovarian; greater than 100 µM in the test on SNB-19 CNS; 78.7 µM in the test with SNB-75 CNS; greater than 100 µM with SR leukemia; greater than 100 µM with SW-620 colon. For the same compound, the TGI with U251 CNS and in the test on UACC-62 melanoma was greater than 100 µM each time.

As to `NCCSc1nc2ccccc2s1`, the TGI was greater than 100 µM with ACHN renal; 93.8 µM in the test with BT-549 breast; 71 µM in the test with HOP-92 NSCLC; greater than 100 µM with KM12 colon; greater than 100 µM with MALME-3M melanoma; 98.1 µM in the test on MCF7 breast. In addition, the TGI with MDA-MB-435 was 69 µM; in the test with MOLT-4 leukemia, 94.8 µM; in the test on NCI-H226 lung, 92.9 µM; with NCI-H23 lung, greater than 100 µM; in the test on OVCAR-5 ovarian, greater than 100 µM; in the test on RPMI-8226 leukemia it was 95.7 µM. Further, the TGI with RXF 393 renal was 77.9 µM; in the test with SK-OV-3 ovarian, 79.7 µM; with SNB-19 CNS it was greater than 100 µM; with SNB-75 CNS it was 62.1 µM; in the test with SR leukemia it was 79.5 µM; with SW-620 colon, greater than 100 µM. The TGI was 48.3 µM in the test with U251 CNS and greater than 100 µM in the test with UACC-62 melanoma.

Regarding `Cc1c(C#N)c2nnn(-c3ccc(Cl)cc3)c(=O)n2c1-c1ccccc1`, the TGI in the test on ACHN renal was found to be 83.4 µM; in the test with BT-549 breast it was 24.9 µM; in the test with HOP-92 NSCLC, 25.7 µM; in the test with KM12 colon, 11.6 µM; in the test with MALME-3M melanoma, 34.4 µM; in the test with MCF7 breast, 19.5 µM. Moreover, the TGI is 0.154 µM in the test with MDA-MB-435; 42.3 µM with MOLT-4 leukemia; 2.02 µM in the test with NCI-H226 lung; 19.8 µM with NCI-H23 lung; 32.1 µM with OVCAR-5 ovarian; greater than 30.6 µM in the test with RPMI-8226 leukemia. For the same compound, the TGI in the test with RXF 393 renal was 3.76 µM; with SK-OV-3 ovarian, 30 µM; in the test with SNB-19 CNS, greater than 40.5 µM; in the test with SNB-75 CNS, 39.7 µM; in the test with SR leukemia, greater than 56.6 µM; in the test with SW-620 colon it was 31.4 µM. The TGI turned out to be 3 µM with U251 CNS and 18.5 µM in the test on UACC-62 melanoma.

`CO/N=C(\C)c1ccc(Nc2c3ccccc3nc3occc23)cc1`: the TGI in the test with ACHN renal was determined as 35.2 µM; with BT-549 breast it was 21.3 µM; with HOP-92 NSCLC, 42 µM; in the test on KM12 colon, 12.5 µM; in the test on MALME-3M melanoma, 0.895 µM; with MCF7 breast it was 1.59 µM. For the same compound, the TGI in the test on MDA-MB-435 stood at 0.224 µM; in the test with MOLT-4 leukemia, 33.5 µM; with NCI-H226 lung, 28.5 µM; in the test with NCI-H23 lung, 26.4 µM; in the test on OVCAR-5 ovarian it was 32.2 µM; with RPMI-8226 leukemia, 12.1 µM. Moreover, the TGI stood at 0.877 µM with RXF 393 renal; 17.2 µM with SK-OV-3 ovarian; 45.1 µM in the test on SNB-19 CNS; 3.29 µM in the test with SNB-75 CNS; 21.9 µM in the test on SR leukemia; 18.9 µM in the test on SW-620 colon. In addition, the TGI in the test with U251 CNS turned out to be 10.9 µM; in the test with UACC-62 melanoma, 16.3 µM.

As for `COC(=O)CCc1cc(OC)c(O)c(C(Cc2ccc(OC)c(OC)c2)C(=O)OC)c1` (stereo not given), the TGI in the test with ACHN renal, with BT-549 breast, with HOP-92 NSCLC, in the test on KM12 colon, with MALME-3M melanoma and in the test with MCF7 breast was greater than 100 µM throughout. For the same compound, the TGI in the test with MDA-MB-435, with MOLT-4 leukemia, in the test with NCI-H226 lung, with NCI-H23 lung, with OVCAR-5 ovarian and with RPMI-8226 leukemia was greater than 100 µM throughout. Moreover, the TGI in the test on RXF 393 renal, in the test with SK-OV-3 ovarian, in the test on SNB-19 CNS, with SNB-75 CNS, with SR leukemia and with SW-620 colon was greater than 100 µM each time. Also, the TGI in the test with U251 CNS and with UACC-62 melanoma was greater than 100 µM each time.

As for `CCCCCCCC1C(C)c2c([nH]c3ccccc23)C2C(=O)N(c3ccc(OC)cc3)C(=O)C21` (stereo not given), the TGI with ACHN renal was 5.74 µM; in the test with BT-549 breast it was 6.56 µM; with HOP-92 NSCLC, greater than 10 µM; in the test with KM12 colon, greater than 10 µM; with MALME-3M melanoma it was greater than 10 µM; in the test with MCF7 breast, greater than 10 µM. Besides, the TGI is greater than 8.39 µM in the test on MDA-MB-435; greater than 10 µM with MOLT-4 leukemia; greater than 8.21 µM in the test on NCI-H226 lung; 6.99 µM in the test on NCI-H23 lung; greater than 10 µM in the test with OVCAR-5 ovarian; greater than 10 µM with RPMI-8226 leukemia. Besides, the TGI is 8.14 µM in the test with RXF 393 renal; greater than 10 µM in the test on SK-OV-3 ovarian; 9.92 µM with SNB-19 CNS; 3.91 µM in the test with SNB-75 CNS; greater than 10 µM with SR leukemia; greater than 8.94 µM with SW-620 colon. Further, the values for the TGI in the test on U251 CNS and with UACC-62 melanoma were 3.97 µM and greater than 10 µM, respectively.

Take `CN(C)c1ccc(/C=c2/c3ccccc3n3c2c2ccccc2[n+]3C)cc1`: the TGI was 2.88 µM in the test on ACHN renal; 1.03 µM with BT-549 breast; 1.92 µM in the test with HOP-92 NSCLC; 10.7 µM with KM12 colon; 1.47 µM with MALME-3M melanoma; 5.46 µM in the test with MCF7 breast. The TGI was 1.87 µM in the test on MDA-MB-435; 2.67 µM with MOLT-4 leukemia; 15.3 µM in the test on NCI-H226 lung; 3.45 µM with NCI-H23 lung; 7.43 µM in the test with OVCAR-5 ovarian; 0.581 µM in the test on RPMI-8226 leukemia. The TGI in the test on RXF 393 renal turned out to be 4.47 µM; with SK-OV-3 ovarian, 14 µM; with SNB-19 CNS, 4.76 µM; in the test with SNB-75 CNS, 8.29 µM; in the test with SR leukemia it was 1.98 µM; with SW-620 colon, 1.61 µM. Besides, the TGI in the test on U251 CNS worked out at 1.46 µM; in the test on UACC-62 melanoma, 0.998 µM.
